The target of one experiment is T1, sPLA2 contraction (Homo sapiens, UniProt P14555).
T1 sequence (P14555 21-144): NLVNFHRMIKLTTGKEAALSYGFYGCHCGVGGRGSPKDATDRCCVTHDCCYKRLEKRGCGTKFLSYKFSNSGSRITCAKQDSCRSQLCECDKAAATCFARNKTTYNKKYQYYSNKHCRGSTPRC
Description: sPLA2-induced contraction of guinea pig lung pleural strips, tissue test (Assay Example 2). The arrangement: species or system Male Hartley strain guinea pigs. The settings on record: guinea pig; compound concentration 30 uM; sPLA2 10 ug/ml; read-out: % suppression of sPLA2 contraction at 30 uM. The source says: Male Hartley strain guinea pigs (500-700 g) were killed by cervical dislocation and their heart and lungs removed intact and placed in aerated (95% O2 :5% CO2) Krebs buffer. Dorsal pleural strips (4×1×25 mm) were dissected from intact parenchymal segments (8×4×25 mm) cut parallel to the outer edge of the lower lung lobes. Two adjacent pleural strips, obtained from a single lobe and representing a single tissue sample, were tied at either end and independently attached to a metal support rod. One rod was attached to a Grass force-displacement transducer (Model FTO3C, product of Grass Medical Instruments Co., Quincy, Mass., USA). […] All tissues were placed in 10 ml jacketed tissue baths maintained at 37° C. The tissue baths were continuously aerated and contained a modified Krebs solution of the following composition (millimolar) NaCl, 118.2; KCl, 4.6; CaCl2.2H2 O, 2.5; MgSO4.7H2 O, 1.2; NaHCO3, 24.8; KH2 PO4, 1.0; and dextrose, 10.0. Pleural strips from the opposite lobes of the lung were used for paired experiments. […] The tissues were allowed to equilibrate for 45 min. as the bath fluid was changed periodically. Cumulative concentration-response curves: Initially tissues were challenged 3 times with KCl (40 mM) to test tissue viability and to obtain a consistent response. After recording the maximal response to KCl the tissues were washed and allowed to return to baseline before the next challenge. Cumulative concentration-response curves were obtained from pleural strips by increasing the agonist concentration (sPLA2) in the tissue bath by half-log10 increments while the previous concentration remained in contact with the tissues (Ref.1, supra.) Agonist concentration was increased after reaching the plateau of the contraction elicited by the preceding concentration. One concentration-response curve was obtained from each tissue. To minimize variability between tissues obtained from different animals, contractile responses were expressed as a percentage of the maximal response obtained with the final KCl challenge. When studying the effects of various drugs on the contractile effects of sPLA2, the compounds and their respective vehicles were added to the tissues 30 min. prior to starting the sPLA2 concentration-response curves. statistical analysis: Data from different experiments were pooled and presented as a percentage of the maximal KCl responses (mean±S.E.). To estimate the drug induced rightward shifts in the concentration response curves, the curves were analyzed simultaneously using statistical nonlinear modeling methods similar to those described by Waud (1976), Equation 26, p. 163, (Ref.2). The model includes four parameters: the maximum tissue response which was assumed the same for each curve, the ED50 for the control curve, the steepness of the curves, and the PA2, the concentration of antagonist that requires a two-fold increase in agonist to achieve an equivalent response. The Schild slope was determined to be 1, using statistical nonlinear modeling methods similar to those described by Waud (1976), Equation 27, p. 164 (Ref. 2). […] To estimate the drug-induced suppression of the maximal responses, sPLA2 responses (10 ug/ml) were determined in the absence and presence of drug, and percent suppression was calculated for each pair of tissues. Ref. 1--van Rossum, J. M.: Cumulative dose-response curves. II. Technique for the making of dose-response curves in isolated organs and the evaluation of drug parameters. Arch. Int. Pharmacodyn. Ther. 143: 299-330, 1963. Ref. 2--Waud, D.: Analysis of dose-response relationships. in Advances in General and Cellular Pharmacology […]
On to `CCCc1c(CC(=O)NN)c2cc(OC)ccc2n1Cc1ccccc1` [Example 5, 5-Methoxy-1-(phenylmethyl)-2-propyl-1H-indole-3-acetic acid hydrazide], for which the inhibition at 30 µM was determined as 21.2 ± 12.5%.
On the same count and under the same terms, next, `Cc1c(CC(=O)NN)c2cc(O)ccc2n1Cc1ccccc1` [Example 61, 5-Hydroxy-2-methyl-1-(phenylmethyl)-1H-indole-3-acetic acid hydrazide]: 72.3 ± 4.5%.

Another experiment concerns the target T2, human secreted PLA2 (Homo sapiens, UniProt P14555).
T2 sequence (P14555 21-144): T1 sequence (P14555 21-144)
Description: chromogenic assay of recombinant human secreted phospholipase A2 inhibition (Assay Example 1). In kind it is biochemical. The settings on record: mean of 3-5 tests; 40° C., 30 minutes, pH 7.5, 405 nanometers; read-out: Inhibition of human secreted PLA2 IC50 ± mean deviation (3-5 tests). The source says: The assay described herein has been adapted for high volume screening using 96 well microtiter plates. A general description of this assay method is found in the article, "Analysis of Human Synovial Fluid Phospholipase A2 on Short Chain Phosphatidylcholine-Mixed Micelles: Development of a Spectrophotometric Assay Suitable for a Microtiterplate Reader", by Laure J. Reynolds, Lori L. […] Reagents, the disclosure of which is incorporated herein by reference. REACTION BUFFER CaCl2.2H20 (1.47 g/L) KCl (7.455 g/L) Bovine Serum Albumin (fatty acid free) (1 g/L) (Sigma A-7030, product of Sigma Chemical Co. St. Louis Mo., USA) TRIS HCl (3.94 g/L) pH 7.5 (adjust with NaOH) ENZYME BUFFER […] 0.2 NaCl Adjust pH to 4.5 with acetic acid DTNB […] RACEMIC DIHEPTANOYL THIO - PC […] TRITON X-100™ prepare at 6.249 mg/ml in reaction buffer to equal […]. REACTION MIXTURE A measured volume of racemic dipheptanoyl thio PC supplied in chloroform at a concentration of 100 mg/ml is taken to dryness and redissolved in 10 millimolar TRITON X-100™ nonionic detergent aqueous solution. Reaction Buffer is added to the solution, then DTNB to give the Reaction Mixture. The reaction mixture thus obtained contains 1 mM diheptanoly thio-PC substrate, 0.29 mM Triton X-100™ detergent, and 0.12 mM DTMB in a buffered aqueous solution at pH 7.5. Assay Procedure: 1. Add 0.2 ml reaction mixture to all wells; 2. Add 10 ul test compound (or solvent blank) to appropriate wells, mix 20 seconds; 3. Add 50 nanograms of sPLA2 (10 microliters) to appropriate wells; 4. Incubate plate at 40° C. for 30 minutes; […] Read absorbance of wells at 405 nanometers with an automatic plate reader. All compounds were tested in triplicate. Typically, compounds were tested at a final concentration of 5 ug/ml. […] Lack of color development at 405 nanometers evidenced inhibition. Compounds initially found to be active were reassayed to confirm their activity and, if sufficiently active, IC50 values were determined. […] In all cases, % inhibition measured at 405 nanometers generated by enzyme reactions containing inhibitors relative to the uninhibited control reactions was determined. Each sample was titrated in triplicate and result values were averaged for plotting and calculation of IC50 values. […] IC50 values were determined at least three times for each compound tested.
In general, IC50 refers to the concentration at which inhibition is half-maximal. Turning to `CCCc1c(CC(=O)NN)c2cc(OC)ccc2n1Cc1ccccc1` [Example 5, 5-Methoxy-1-(phenylmethyl)-2-propyl-1H-indole-3-acetic acid hydrazide], the IC50 is 70500 ± 2890 nM.
Same read-out and setting: next, `Cc1c(CC(=O)NN)c2cc(O)ccc2n1Cc1ccccc1` [Example 61, 5-Hydroxy-2-methyl-1-(phenylmethyl)-1H-indole-3-acetic acid hydrazide]: 1390 ± 690 nM; `Cc1c(CC(=O)NN)c2cc(C(=O)NN)ccc2n1Cc1cccc(Cl)c1` [Example 69, 1-[(3-Chlorophenyl)methyl]-5-hydrazinocarbonyl-2-methyl-1H -indole-3-acetic acid hydrazide]: 2700 ± 380 nM.
Regarding `Cc1c(CC(=O)NN)c2ccc(Br)cc2n1Cc1ccccc1` [Example 54, 6-Bromo-2-methyl-1-(phenylmethyl)-1H-indole-3-acetic acid hydrazide], the IC50 stood at 1020 ± 260 nM.
Consider `COc1ccc2c(c1)c(CC(=O)NN)c(C)n2Cc1cc(Cl)ccc1Cl` [Example 20, 1-(2,5-Dichlorophenylmethyl)-5-methoxy-2-methyl-1H-indole-3-acetic acid hydrazide], for which the IC50 was 9390 ± 2300 nM.
With `COc1ccc2c(c1)c(CC(=O)NN)c(C)n2CCCc1ccccc1` [Example 41, 5-Methoxy-2-methyl-1-(3-phenylpropyl)-1H-indole-3-acetic acid hydrazide], the IC50 amounted to 16800 ± 2890 nM.
In the case of `COc1ccc2c(c1)c(CC(=O)NN)c(C)n2Cc1ccc(OCc2ccccc2)cc1` [Example 32, 1-[(4-Benzyloxyphenyl)methyl]-5-methoxy-2-methyl-1H-indole-3-acetic acid hydrazide], the IC50 amounted to 2280 ± 570 nM.
The same measure, in the same setting: next, `Cc1c(CC(=O)NN)c2cc(Cl)ccc2n1Cc1cccc(Cl)c1` [Example 49, 5-Chloro-[(3-chlorophenyl)methyl]-2-methyl-1H-indole-3-acetic acid hydrazide]: 1630 ± 740 nM.
Still for that read-out and setting: with `COc1ccc2c(c1)c(CC(=O)NN)c(C)n2Cc1ccccn1` [Example 37, 5-Methoxy-2-methyl-1-[(2-pyridyl)methyl]-1H-indole-3-acetic acid hydrazide] the figure was 27200 ± 7890 nM.
Same read-out and setting: next, `COc1ccc2c(c1)c(CC(=O)NN)c(C)n2Cc1ccccc1Cl` [Example 17, 1-(2-Chlorophenylmethyl)-5-methoxy-2-methyl-1H-indole-3-acetic acid hydrazide]: 1710 ± 240 nM.
Regarding `COc1ccc2c(c1)c(CC(=O)NN)c(SC)n2Cc1ccccc1` [Example 45, 5-Methoxy-2-methylthio-1-(phenylmethyl)-1H-indole-3-acetic acid hydrazide], the IC50 was found to be 600 ± 130 nM.
The same measure, in the same setting: next, `Cc1c(CC(=O)NN)c2cc(-c3ccccc3)ccc2n1Cc1cccc(OCc2ccccc2)c1` [Example 58, 1-[(3-Benzyloxyphenyl)methyl]-2-methyl-5-phenyl-1H-indole-3-acetic acid hydrazide]: 2210 ± 1160 nM.
The same measure, in the same setting: with `Cc1c(CC(=O)NN)c2cc(-c3ccccc3)ccc2n1Cc1ccccc1` [Example 56, 2-Methyl-5-phenyl-1-(phenylmethyl)-1H-indole-3-acetic acid hydrazide] the figure was 860 ± 200 nM.
The same measure, in the same setting: next, `NNC(=O)Cc1cn(Cc2ccccc2)c2ccc(OCc3ccccc3)cc12` [Example 9, 5-Benzyloxy-1-(phenylmethyl)-1H-indole-3-acetic acid hydrazide]: 2310 ± 650 nM; `COc1ccc2ccccc2c1Cn1c(C)c(CC(=O)NN)c2ccccc21` [Example 11, 1-(2-Methoxy-1-naphthalenylmethyl)-2-methyl-1H-indole-3-acetic acid hydrazide]: 11100 ± 1800 nM; `COc1ccc2c(c1)c(CC(=O)NN)c(C)n2Cc1cccnc1` [Example 38, 5-Methoxy-2-methyl-1-[(3-pyridyl)methyl]-1H-indole-3-acetic acid hydrazide]: 84200 ± 19400 nM.
Regarding `Cc1c(CC(=O)NN)c2cc(Cl)ccc2n1Cc1ccccc1` [Example 48, 5-Chloro-2-methyl-1-(phenylmethyl)-1H-indole-3-acetic acid hydrazide], the IC50 is 740 ± 150 nM.
As to `COc1ccc2c(c1)c(CC(=O)NN)c(C)n2Cc1cccc(C(F)(F)F)c1` [Example 23, 5-Methoxy-2-methyl-1-[(3-trifluoromethylphenyl)methyl]-1H-indole-3-acetic acid hydrazide], the IC50 stood at 890 ± 520 nM.
In the case of `CCc1c(CC(=O)NN)c2cc(C)ccc2n1Cc1ccccc1` [Example 6, 2-Ethyl-5-methyl-1-(phenylmethyl)-1H-indole-3-acetic acid hydrazide], the IC50 was 670 ± 240 nM.
The same measure, in the same setting: with `COc1ccc2c(c1)c(CC(=O)NN)c(C)n2Cc1ccc(Cl)cc1` [Example 19, 1-(4-Chlorophenylmethyl)-5-methoxy-2-methyl-1H-indole-3-acetic acid hydrazide] the figure was 9280 ± 2060 nM.
Same read-out and setting: with `CCCCCCCCCCOc1cccc(Cn2c(C)c(CC(=O)NN)c3cc(OC)ccc32)c1` [Example 29, 1-[(3-Decyloxyphenyl)methyl]-5-methoxy-2-methyl-1H-indole-3-acetic acid hydrazide] the figure was 840 ± 310 nM.
The same measure, in the same setting: with `COc1ccc2c(c1)c(CC(=O)NN)c(C)n2Cc1cccc(N)c1` [Example 35, 1-[(3-Aminophenyl)methyl]-5-methoxy-2-methyl-1H-indole-3-acetic acid hydrazide] the figure was 7120 ± 4890 nM.
On to `Cc1c(CC(=O)NN)c2cc(OCCCC(=O)O)ccc2n1Cc1ccccc1` [Example 71, 4-[[3-(2-Hydrazino-2-oxoethyl)-2-methyl-1-(phenylmethyl)-1H-indol-5-yl]oxy]butanoic acid], for which the IC50 is 860 nM.
Still for that read-out and setting: next, `COc1ccc(Cn2c(C)c(CC(=O)NN)c3cc(OC)ccc32)cc1` [Example 28, 5-Methoxy-1-[(4-methoxyphenyl)methyl]-2-methyl-1H-indole-3-acetic acid hydrazide]: 11700 ± 4040 nM.
